Patent publication US20260014125A1, “BICYCLIC-TYPE MAT2A INHIBITOR AND USE THEREOF” (HAIHE BIOPHARMA CO., LTD., priority 2022, published 2026)

Key:
[1] = target: MAT2A (Homo sapiens (Human), UniProt P31153); experiment: Biochemical test: inhibition of MAT2A enzyme activity (phosphate detection, OD620); settings: MAT2A his-tag; 150 minutes enzymatic reaction
Text: Experimental principle: MAT2A can catalyze the conversion of L-methionine and ATP into SAM, inorganic phosphate, and inorganic diphosphate. By adding a chromogenic reagent to the enzymatic reaction system, the content of inorganic phosphates in a sample can be quantitatively detected, thereby characterizing the enzymatic activity of MAT2A.
Experimental material: Tris (Life Science #0497); BSA (Sigma #); MAT2A his-tag (BPS #71401-1); 384 well plate (Corning #3765); L-methionine (Admas #1100469); ATP (Sigma #A7699); MgCl2 (Sigma #M8266); KCl (Sigma #7447-40-7); Brij35 (Sigma #B4184); EDTA (Sigma #E1644)
1. 1×Assaybuffer (buffer composition: Tris, KCl, MgCl2, BSA, Brij35, and EDTA; the solvent was ultrapure water) was prepared. MAT2A his-tag enzyme solution (containing 1.3 μL of MAT2A enzyme and 998.7 μL of 1×Assaybuffer per 1000 μL) and substrate mixed solution (containing 5 μL of ATP, 1.3 μL of L-methionine, and 993.7 μL of 1×Assaybuffer per 1000 μL) were prepared using 1×AssayBuffer.
2. Preparation of compound concentration gradient: The test compound was tested with a starting concentration of 10 μM, and 10 equimolar concentrations were set according to a 3-fold dilution. Specifically, firstly, the compound was diluted into 10 different concentrations of series solutions in a 384 well plate (with final detection concentrations of 10, 3.33, 1.11, 0.37, 0.123, 0.041, 0.0137, 0.0046, 0.0015, and 0.0005 μM), and then 250 nL of the above series solutions was transferred to the 384 well reaction plate using an ultrasonic pipetting system Echo550 for later use. 250 nL of 100% DMSO was added into a negative control well and a positive control well, respectively. Double well test.
3. 15 μL of MAT2A his-tag enzyme solution was added into both the compound well and the positive control well; and 15 μL of 1×Assaybuffer was added into the negative control well.
4. The 384 well plate reaction plate was centrifuged at 1000 rpm for 60 seconds, shaken, mixed well, and incubated for 15 minutes. 10 μL of substrate mixed solution was added into each experimental well of the 384 well reaction plate to initiate the reaction.
5. The 384 well reaction plate was centrifuged at 1000 rpm for 60 seconds, shaken, mixed well, and incubated for 150 minutes.
6. 50 μL of enzyme reaction termination solution Biomol was added into all experimental wells of the 384 well reaction plate to terminate the reaction, centrifuged at 1000 rpm for 60 seconds, and incubated for 15 minutes. OD620 was read and data was processed.
Data analysis: the inhibition rate (%) of the compound was calculated and fitted to obtain the IC50 of the tested compound. Calculation method for compound inhibition rate: Compound inhibition rate (%)=(OD620_max−OD620_stample)/(OD620_max−OD620_min)×100, wherein OD620_stample was the absorbance value of the sample well; OD620 min was the absorbance value of the positive control well, indicating the reading of the wells without enzyme activity; and OD620_max was the absorbance value of the negative control well, indicating the reading of the well without compound inhibition.

[2] = test system: KP-4 cells; experiment: Human pancreatic cancer KP-4 cell activity inhibition test (CellTiter-Glo); type: cell-based; settings: 5 days
Protocol: Experimental principle: after co-incubating the MAT2A inhibitor to be tested with KP-4 cells for a period of time, a cell viability measurement method based on ATP content is used to characterize the effect of the tested compound on cell viability.
Experimental material: KP-4 cells (JCRB #JCRB0182); IMDM (Gibco 912440061); fetal bovine serum (EXCELL #FND500); penicillin-streptomycin (Gibco #15140-122); 0.25% Typsin-EDTA (Gibco #252(101-072); DMSO (Sigma #D2650); 96 well plate (Corning #3610); CellTiter-Glo (Promega #G7571)
1. KP-4 cells were cultured in IMDM culture medium containing 10% e fetal bovine serum and 1% penicillin-streptomycin at 37° C. and 5% CO2 in a cell culture incubator. Only cells in logarithmic growth phase were used for subsequent experiments.
2. The cells in logarithmic growth phase were inoculated into a 96 well plate, with a seeding quantity of 500 cells per well, and incubated overnight in a cell culture incubator at 37′C and 5% CO2.
3. The compound was dissolved with DMSO, diluted with culture medium to 10 different concentrations (approximately […]), 3333.3, 1111.1, 370, 123, 41.2, 13.7, 4.6, 1.5, and 0.5 nM) before adding it to the cell plate, and cultured at 37° C. and 5% CO2 for 5 days.
4. CellTiter-Glo reagent was added, and an enzyme-linked immunosorbent assay reader was used to detect cell viability.
Data analysis: the inhibition rate (%) of the compound was calculated and fitted to obtain the IC50 of the tested compound. Calculation method for compound inhibition rate: Compound inhibition rate (%)=(Signal_max−Signal_sample)/(Signal_max−Signal_min)×100, wherein Signal_sample was the sample well reading, indicating the cell activity of the compound inhibition well; Signal_min was the positive control well reading, indicating the background activity without cells; and Signal_max was the negative control well reading, indicating the cell activity of the well without compound inhibition.

MAT2A, sequence (P31153 whole entry): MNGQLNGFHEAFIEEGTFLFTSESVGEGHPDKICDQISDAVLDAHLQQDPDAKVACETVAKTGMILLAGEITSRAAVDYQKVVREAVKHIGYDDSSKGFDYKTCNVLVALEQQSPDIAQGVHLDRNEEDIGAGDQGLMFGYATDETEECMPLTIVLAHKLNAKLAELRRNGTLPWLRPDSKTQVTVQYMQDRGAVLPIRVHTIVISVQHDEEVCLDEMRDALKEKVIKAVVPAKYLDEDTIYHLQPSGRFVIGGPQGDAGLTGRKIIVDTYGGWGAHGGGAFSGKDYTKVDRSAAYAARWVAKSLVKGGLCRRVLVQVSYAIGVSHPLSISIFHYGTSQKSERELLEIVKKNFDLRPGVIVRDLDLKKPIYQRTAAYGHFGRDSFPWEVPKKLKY

IC50 [1] [nM]	IC50 ([2]; Homo sapiens, 120 h) [nM]	Compound	IC50 [2] [nM]
18.2	32	CCOc1c(-c2ccc(Cl)cc2)c(=O)n(-c2ccc3nn(C4COC4)cc3c2)c2[nH]ncc12 [Compound 90]	–
16	19.5	Cn1cc2cc(-n3c(=O)c(-c4ccc(C5CC5)nc4)c(OCC(F)(F)F)c4cn[nH]c43)ccc2n1 [Compound 53]	–
14.8	3.5	CCCOc1c(-c2ccc(Cl)nc2)c(=O)n(-c2ccc3nn(C)cc3c2)c2[nH]ncc12 [Compound 58]	–
18	180	CCOc1c(-c2ccc(Cl)cn2)c(=O)n(-c2ccc3nn(C)cc3c2)c2[nH]ncc12 [Compound 62]	–
17.6	32	Cn1cc2nc(-n3c(=O)c(-c4ccc(Cl)cc4)c(OCC4CC4)c4cn[nH]c43)ccc2n1 [Compound 96]	–
17.3	66.7	Cn1cc2cc(-n3c(=O)c(-c4ccc(C(F)(F)F)nc4)c(NCC4CC4)c4cn[nH]c43)ccc2n1 [Compound 108]	–
23.2	128	CCOc1c(-c2ccc(Cl)cc2)c(=O)n(-c2ccc3nn(C)cc3n2)c2nn(C)cc12 [Compound 109]	–
16.5	2.5	CCOc1c(-c2ccc(Cl)cc2)c(=O)n(-c2ccc3nn(C)cc3c2)c2cn[nH]c12 [Compound 55]	–
18.2	2.4	Cn1cc2cc(-n3c(=O)c(-c4ccc(Cl)cc4)c(NCC(F)(F)F)c4cn[nH]c43)ccc2n1 [Compound 63]	–
17.2	23.7	CCOc1c(-c2ccc(C)cc2)c(=O)n(-c2ccc3nn(C)cc3c2)c2[nH]ncc12 [Compound 117]	–
17.5	62.8	CCOc1c(-c2ccc(Cl)cc2)c(=O)n(-c2ccc3nn(CCN(C)C)cc3c2)c2[nH]ncc12 [Compound 111]	–
20.7	25	CCOc1c(-c2ccc(Cl)cc2)c(=O)n(-c2ccc3nn(C)cc3n2)c2[nH]ncc12 [Compound 84]	–
12.6	38	CCOc1c(-c2ccc(OC)nc2)c(=O)n(-c2ccc3nn(C)cc3c2)c2[nH]ncc12 [Compound 126]	–
16	136	CCOc1c(-c2ccc(F)c(F)c2)c(=O)n(-c2ccc3nn(C)cc3c2)c2[nH]ncc12 [Compound 118]	–
16.1	87.8	Cn1cc2nc(-n3c(=O)c(-c4ccc(Cl)cc4)c(OCC(F)(F)F)c4cn[nH]c43)ccc2n1 [Compound 99]	–
19.1	6.1	CCOc1c(-c2ccc(Cl)cc2)c(=O)n(-c2ccc3nn(C)cc3c2)c2nn(C)cc12 [Compound 134]	–
18	236	CCOc1c(-c2cnc(C(F)(F)F)nc2)c(=O)n(-c2ccc3nn(C)cc3c2)c2[nH]ncc12 [Compound 124]	–
19.1	279	CCOc1c(-c2ccc(C(F)(F)F)nc2)c(=O)n(-c2ccc3nn(C4COC4)cc3c2)c2[nH]ncc12 [Compound 92]	–
13.7	12.7	CCOc1c(-c2ccc(Cl)cc2)c(=O)n(-c2ccc3nn(C)c(C)c3c2)c2[nH]ncc12 [Compound 66]	–
19.6	59	CCNc1c(-c2ccc(Cl)cc2)c(=O)n(-c2ccc3nn(C)cc3n2)c2[nH]ncc12 [Compound 105]	–
20.6	41.1	CCOc1c(-c2ccc(C(F)(F)F)nc2)c(=O)n(-c2ccc3nn(CC)cc3c2)c2[nH]ncc12 [Compound 102]	–

The next lines start with the molecule.

Compound	IC50 [1] [nM]	IC50 ([2]; Homo sapiens, 120 h) [nM]	IC50 [2] [nM]
CCOc1c(-c2ccc(OC(F)F)cc2)c(=O)n(-c2ccc3nncn3c2)c2[nH]ncc12 [Compound 26]	13.5	659	–
COc1ccc(-c2cc3cn[nH]c3n(-c3ccc4nn(C)cc4c3)c2=O)cc1 [Compound 1]	> 10000	–	> 10000
CCOc1c(-c2ccc(OC(F)F)cc2)c(=O)n(-c2ccc3nn(C)cc3c2)c2nn(C)cc12 [Compound 45]	10.5	89.1	–
CCOc1c(-c2ccc(C(F)(F)F)nc2)c(=O)n(-c2ccc3nn(C)cc3c2)c2[nH]ncc12 [Compound 46]	15.3	60.9	–
COc1ccc(-c2c(OCC(F)(F)F)c3cn[nH]c3n(-c3ccc4nn(C)cc4c3)c2=O)cn1 [Compound 29]	12.3	13.5	–
CCNc1c(-c2ccc(Cl)cc2)c(=O)n(-c2ccc3nn(C)cc3c2)c2[nH]ncc12 [Compound 11]	14.2	4.9	–
CCOc1c(-c2ccc(OC(F)F)cc2)c(=O)n(-c2ccc3nn(C4COC4)cc3c2)c2[nH]ncc12 [Compound 37]	11	36	–
Cn1cc2cc(-n3c(=O)c(-c4ccc(Cl)cc4)c(OCC(F)(F)F)c4cn[nH]c43)ccc2n1 [Compound 28]	15	5.2	–
Cn1cc2cc(-n3c(=O)c(-c4ccc(OC(F)F)cc4)c(OCC(F)(F)F)c4cn[nH]c43)ccc2n1 [Compound 27]	17.1	6.8	–
COc1ccc(-c2c(OCC(F)(F)F)c3cn[nH]c3n(-c3ccc4nn(C)cc4c3)c2=O)cc1 [Compound 12]	12.1	11.7	–
CCOc1c(-c2ccc(OC)cc2)c(=O)n(-c2ccc3ncn(C)c3c2)c2[nH]ncc12 [Compound 15]	15.3	159	–
COc1ccc(-c2c(NCC3CC3)c3cn[nH]c3n(-c3ccc4nn(C)cc4n3)c2=O)cc1 [Compound 5]	17.7	28	–
Cn1cc2cc(-n3c(=O)c(-c4ccc(F)cc4)c(OCC4CC4)c4cn[nH]c43)ccc2n1 [Compound 51]	15.7	35.7	–
CCOc1c(-c2ccc(OC(F)F)cc2)c(=O)n(-c2ccc3nn(CCO)cc3c2)c2[nH]ncc12 [Compound 20]	9.8	–	224
Cn1cnc2ccc(-n3c(=O)c(-c4ccc(Cl)cc4)c(OCC(F)(F)F)c4cn[nH]c43)cc21 [Compound 36]	17	39.2	–
CCOc1c(-c2ccc(OC)cc2)c(=O)n(-c2ccc3nn(C)cc3c2)c2[nH]ncc12 [Compound 3]	19.4	64	–
CCNc1c(-c2ccc(OC(F)F)cc2)c(=O)n(-c2ccc3nn(C)cc3c2)c2[nH]ncc12 [Compound 9]	15.3	24.7	–
Cn1cc2cc(-n3c(=O)c(-c4ccc(Cl)cc4)c(OCC4CC4)c4cn[nH]c43)ccc2n1 [Compound 50]	13.6	21.4	–
Cn1cc2cc(-n3c(=O)c(-c4ccc(F)cc4)c(OCC(F)(F)F)c4cn[nH]c43)ccc2n1 [Compound 49]	17.9	57.8	–
CCNc1c(-c2ccc(OC)cc2)c(=O)n(-c2ccc(=O)n(C)c2)c2[nH]ncc12 [Compound 7]	35.3	> 10000	–
CNc1c(-c2ccc(OC)cc2)c(=O)n(-c2ccc3nn(C)cc3c2)c2[nH]ncc12 [Compound 4]	62	28	–
